Test results reported in PMC2996101 (Journal of natural products, 2009).

Assays:
[1] = system: 12-hLO; conditions: data from literature ref 20; cited from earlier work
[2] = target: T1, human 5-lipoxygenase (5-hLO) (Homo sapiens, UniProt P09917); experiment: Lipoxygenase assay, 5-hLO; conditions: ratio of IC50 values
T1 sequence (P09917 1-674): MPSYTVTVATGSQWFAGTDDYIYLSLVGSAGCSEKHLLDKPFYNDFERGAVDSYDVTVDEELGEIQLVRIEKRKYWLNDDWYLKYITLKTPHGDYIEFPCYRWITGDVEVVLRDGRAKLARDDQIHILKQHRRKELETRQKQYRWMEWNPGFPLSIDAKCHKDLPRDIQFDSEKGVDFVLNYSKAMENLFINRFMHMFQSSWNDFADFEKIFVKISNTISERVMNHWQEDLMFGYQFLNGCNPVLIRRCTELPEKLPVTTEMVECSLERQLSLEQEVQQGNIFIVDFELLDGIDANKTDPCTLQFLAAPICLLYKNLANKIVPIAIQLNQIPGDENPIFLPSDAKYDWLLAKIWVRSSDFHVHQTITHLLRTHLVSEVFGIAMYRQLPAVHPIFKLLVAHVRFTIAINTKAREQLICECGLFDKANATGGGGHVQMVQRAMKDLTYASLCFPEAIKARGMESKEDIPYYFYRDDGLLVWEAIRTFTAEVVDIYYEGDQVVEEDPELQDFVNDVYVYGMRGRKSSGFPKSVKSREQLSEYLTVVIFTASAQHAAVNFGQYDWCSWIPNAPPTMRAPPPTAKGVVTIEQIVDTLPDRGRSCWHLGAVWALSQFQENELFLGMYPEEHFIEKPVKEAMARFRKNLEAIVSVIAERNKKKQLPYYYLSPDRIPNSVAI

[3] = system: 12-hLO; conditions: read-out: previous IC50 12-hLO; previous work without Triton X100 ref 9; cited from earlier work
[4] = system: human lung adenocarcinoma cells over human leukemic lymphoid cells; experiment: Soft agar disk diffusion assay; format: cell-based; conditions: Table S4
[5] = system: 15-hLO; conditions: read-out: previous IC50 15-hLO; previous work without Triton X100 ref 9; cited from earlier work

| SMILES | 12-hLO/5-hLO selectivity ratio [2] | 15-hLO/5-hLO selectivity ratio [2] | 12-hLO activity [1] | IC50 [3] | selectivity against solid tumor cells [4] | IC50 [5] |
| --- | --- | --- | --- | --- | --- | --- |
| C[C@@H](c1cc2ccccc2s1)N(O)C(N)=O [Compound 13, zileuton] | – | – | Active ^*, ^** | – | – | – |
| CC1(C)CCC[C@]2(C)[C@H]3C=C4C(=CC(=O)[C@@H]4O)O[C@@]3(C)CC[C@@H]12 [Compound 3, 20-hydroxyhaterumadienone] | ~ 3 | ~ 3 | – | – | – | – |

Second part, led by results:

| 12-hLO/5-hLO selectivity ratio [2] | 15-hLO/5-hLO selectivity ratio [2] | SMILES | 12-hLO activity [1] | IC50 [3] | selectivity against solid tumor cells [4] | IC50 [5] |
| --- | --- | --- | --- | --- | --- | --- |
| 4 | – | CC1(C)CCC[C@]2(C)C3=CC4=CC(=O)C(=O)C=C4O[C@@]3(C)CC[C@@H]12 [Compound 5, puupehedione] | – | – | – | – |
| 32 | 9 | CC1(C)CCC[C@]2(C)[C@H]3C=C4C=C(O)C(=O)C=C4O[C@@]3(C)CC[C@@H]12 [Compound 1, puupehenone] | – | 8300 nM | modest selectivity | 800 nM |
| > 111 | 42 | CC1=C(CC/C(C)=C/CC/C(C)=C/Cc2cc(O)ccc2O)C(C)(C)CCC1 [Compound 9, jaspaquinol] | – | 4500 nM | – | 300 nM |
